From ChEMBL document CHEMBL4732228, “The total synthesis of berberine and selected analogues, and their evaluation as amyloid beta aggregation inhibitors” (Eur J Med Chem, 2021)
In brackets after ≈: the same amount, converted by molar mass. Activity calls are given as the source filed them. No cut-off for these calls is given here.

What was measured:
[1] = Water solubility of the compound at 1 mg incubated for 12 hrs under shaking condition by UV-HPLC analysis; format: physicochemical
[2] = Cytotoxicity against rat PC12 cells assessed as reduction in cell viability incubated for 24 hrs by WST-8 assay; format: cell-based, PC-12
[3] = biological target: Amyloid-beta precursor protein (Homo sapiens) (UniProt P05067); test: Inhibition of amyloid beta (1 to 42 ) (unknown origin) aggregation at 10 uM after 20 hrs by thioflavin-T fluorescence method relative to control
[4] = Ratio of compound solubility to curcumin solubility in water after 12 hrs by UV-HPLC analysis; format: physicochemical; details: buffer
[5] = biological target: Amyloid-beta precursor protein (Homo sapiens) (UniProt P05067); test: Inhibition of amyloid beta (1 to 42 ) (unknown origin) aggregation assessed as decrease in diameter of aggregate after 20 hrs by dynamic light scattering analysis (reference value: 4.6 micrometer)
[6] = biological target: Amyloid-beta precursor protein (Homo sapiens) (UniProt P05067); test: Inhibition of amyloid beta (1 to 42 ) (unknown origin) aggregation assessed as decrease in size of amyloid beta fibrils after 20 hrs by TEM analysis (reference value: 1 micrometer)
[7] = biological target: Amyloid-beta precursor protein (Homo sapiens) (UniProt P05067); test: Inhibition of amyloid beta (1 to 42 ) (unknown origin) aggregation assessed as appearance of nano-rod like amyloid beta fragments after 20 hrs by CD spectroscopic method

Amyloid-beta precursor protein (Homo sapiens), sequence (P05067 whole entry, the tested form may be a part): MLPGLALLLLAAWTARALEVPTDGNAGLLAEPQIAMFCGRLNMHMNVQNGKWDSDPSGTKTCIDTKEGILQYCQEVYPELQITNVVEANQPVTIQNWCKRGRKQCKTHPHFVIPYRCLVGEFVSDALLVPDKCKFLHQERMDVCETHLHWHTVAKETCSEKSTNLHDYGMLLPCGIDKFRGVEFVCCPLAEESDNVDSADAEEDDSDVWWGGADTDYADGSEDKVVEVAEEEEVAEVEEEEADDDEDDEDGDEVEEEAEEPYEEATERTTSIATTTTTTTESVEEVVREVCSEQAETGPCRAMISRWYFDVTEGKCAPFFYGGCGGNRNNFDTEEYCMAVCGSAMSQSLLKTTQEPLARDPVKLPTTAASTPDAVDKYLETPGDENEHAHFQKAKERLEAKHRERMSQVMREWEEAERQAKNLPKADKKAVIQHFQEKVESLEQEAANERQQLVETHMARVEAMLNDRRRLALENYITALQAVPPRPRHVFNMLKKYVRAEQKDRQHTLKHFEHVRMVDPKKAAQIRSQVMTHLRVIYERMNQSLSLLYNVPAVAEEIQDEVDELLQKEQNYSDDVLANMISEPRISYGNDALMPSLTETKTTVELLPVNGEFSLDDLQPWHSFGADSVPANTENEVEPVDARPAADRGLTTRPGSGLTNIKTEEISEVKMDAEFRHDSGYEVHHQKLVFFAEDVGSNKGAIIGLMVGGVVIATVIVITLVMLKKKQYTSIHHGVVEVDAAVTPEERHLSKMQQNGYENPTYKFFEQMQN

| Structure (SMILES) | solubility thermodynamic at 12 h [1] [µM] | CC50 at 24 h [2] [µM] | inhibition [3] [%] | Ratio [4] | Activity [5] [nm] | Activity [6] [nm] | inhibition [7] |
| --- | --- | --- | --- | --- | --- | --- | --- |
| COc1ccc2cc[nH]c(=O)c2c1OC | 5.2 (≈ 1.07 µg/mL) | 129 |  |  |  |  |  |
| COc1c(O)ccc2c1CN1CCc3cc(O)c(O)cc3C1C2 (configuration not stated) | 2370 (≈ 743 µg/mL) | 91 | 61 |  |  |  |  |
| COc1ccc2cc3[n+](cc2c1OC)CCc1cc2c(cc1-3)OCO2.[Cl-] [BERBERINE CHLORIDE] | 1780 | > 150 | 32 | 9000 |  |  |  |
| CCOC(CNC(=O)c1cccc(OC)c1OC)OCC | 26 (≈ 7.73 µg/mL) | > 150 |  |  |  |  |  |
| COc1ccc2cc3n(c(=O)c2c1OC)CCc1cc2c(cc1-3)OCO2 [OXYBERBERINE] |  | 137 |  |  |  |  |  |
| Oc1cc2c(cc1O)C1Cc3ccc(O)c(O)c3CN1CC2 (configuration not stated) | > 3340 | 114 | 78 |  | 1.3 | 50 | Active |
| COc1ccc2ccn(CCc3cc4c(cc3Br)OCO4)c(=O)c2c1OC | 15 (≈ 6.48 µg/mL) | 132 |  |  |  |  |  |
| O=C1C=C(c2ccc(O)c(O)c2)OC(c2cc(O)ccc2O)C1 (configuration not stated) | 2340 (≈ 735 µg/mL) | 114 | 100 |  |  |  |  |
| Oc1cc2c(cc1O)-c1cc3ccc(O)c(O)c3c[n+]1CC2.[Cl-] | 2450 | 9.8 | 72 |  |  | 50 | Active |
| COc1ccc2c(c1OC)CN1CCc3cc4c(cc3C1C2)OCO4 (configuration not stated) [TETRAHYDROBERBERINE] | 7 (≈ 2.38 µg/mL) | > 150 |  |  |  |  |  |
| COc1c(O)ccc2cc3[n+](cc12)CCc1cc(O)c(O)cc1-3.[Cl-] | 1500 | 39 | 39 |  |  |  |  |
| COc1cc(/C=C/C(=O)CC(=O)/C=C/c2ccc(O)c(OC)c2)ccc1O [CURCUMIN] |  | 44 |  |  |  |  |  |
| COc1ccc2cc3[n+](cc2c1OC)CCc1cc(O)c(O)cc1-3.[Cl-] | 2750 | > 150 | 27 |  |  |  |  |
